Reference: patent US7384656B2, “Anti-allergy composition and related method” (Access Business Group International LLC, priority 2004, dated 2008)

Experiments:
[1] = tested on: IgE secretion by U266 human myeloma cells; experiment: IgE secretion by U266 human myeloma cells (IgE ELISA of supernatants); format: cell-based; conditions: for Percent Control, IgE Secretion (IgE) (Table VIII): 100 μg/ml (no concentration printed for Formula)
Method: The methodology used to obtain the results of FIG. 3 will now be described. First, U266 human myeloma cells, available from ATCC of Manassas, Va. were plated in 96 well plates at 4×10^4/well. The cells were exposed to the sample combinations of ingredients listed in Table I, each combination referred to as a “sample.” Stock solutions of all samples were prepared in a solution of DMSO, ethanol, and water present in a ratio of 5:3:2 at 100 mg/ml. Each sample was then diluted to 100 μg/ml in media. Duplicate plates of each sample were prepared so that viability could be determined multiple times for each sample, with the results of the multiple samples averaged following treatment of the cells. The plates were incubated an additional 48 hours. Thereafter, the amount of IgE in the supernatants was measured using a conventional quantitative IgE ELISA kit available from Bethyl Laboratories of Montgomery, Tex. Next, the measured OD450 data from the IgE ELISA was inputted into a calibration graph, illustrated in FIG. 4, to determine the concentration of IgE in ng/ml in each supernatant. This calibration graph was generated by measuring the OD450 of multiple, known concentrations (in nanograms per ml) of purified IgE. As shown in the graph, the X-axis indicates the concentrations of the IgE in ng/ml; and the Y-axis indicates the OD450 derived from each of the concentrations. The line 100 connects the data points, while line 110 is a trend line corresponding to the equation in this particular embodiment of: Y=0.2909X−0.2527 Equation 1 With the IgE calibration graph, the amount of IgE for each sample was determined, and the subsequent data was input into FIG. 3 for comparative analysis.

[2] = tested on: histamine release, RBL-2H3 cells; experiment: Histamine release from IgE-sensitized, DNP-BSA stimulated RBL-2H3 cells (ELISA); format: cell-based; conditions: for Percent Control of Histamine Release (Table VII): 10 ng/ml, in combinations each part at 10 ng/ml; for Percent Control, Histamine Release (Table VIII): 1 μg/ml
Method: The methodology used to obtain the results of FIG. 9 will now be described. First, RBL-2H3 cells, available from ATCC (American Type Culture Collection) of Manassas, Va., were plated in 24 well plates at 5×10^4/well. Following adherence, the cells were exposed to the ingredients or combination of ingredients noted in FIG. 9, also referred to as samples. The samples were used at the concentrations noted in Table VI. Stock solutions of all samples were prepared in a solution of DMSO, ethanol, and water present in a ratio of 5:3:2 at 100 mg/ml. Each sample was then diluted in media to the final concentration. The cells were then incubated overnight with the samples. The following day a mouse anti-dinitrophenyl (DNP) IgE antibody, available from Sigma of St. Louis, Mo., was added to the cells at a final concentration of 1 ng/ml. The cells were incubated for 1.5 hr at 37° C. to allow binding of the IgE molecule to the cellular IgE receptor via the constant region of the antibody. Following this incubation period, the cells were washed twice. A solution containing DNP conjugated to BSA (DNP-BSA), available from Calbiochem of San Diego, Calif., was added to the cells at 0.5 ng/ml. The cells were incubated an additional 1 hr at 37° C. The supernatants were assayed for the presence of histamine, PGD2 and/or LTC4 using ELISA kits commercially available from Cayman Chemical of Ann Arbor, Mich. according to the manufacturer's specifications. Next, the measured OD450 data from the ELISA was inputted into a calibration graph to determine the amount by which histamine was reduced relative to an untreated control sample. An example of a histamine calibration graph is illustrated in FIG. 10. Suffice it to say that calibration graphs for PGD2 and LTC4 are similar. The calibration graph in FIG. 10 was generated by measuring the OD450 of multiple, known concentrations of purified histamine. As shown in the graph, the X-axis indicates the concentrations of the histamine in nanomolar; and the Y-axis indicates the OD450 derived from each of the concentrations. The line 120 connects the data points, while line 130 is a trend line corresponding to the equation in this particular embodiment of: Y=−0.0025X^2+0.2915X+2.0775 Equation 2 With the histamine calibration graph, the amount of histamine for each sample was determined, and the subsequent data was input into Table VI and FIG. 9 for comparative analysis.

[3] = listed as Luteolin from Perilla seed

## O=c1cc(-c2ccc(O)c(O)c2)oc2cc(O)cc(O)c12 [Luteolin]
[1]
  Percent Control, IgE Secretion (IgE) (Table VIII): about 95%
[1]; [3]
  Percent Control, IgE Secretion (IgE) (Table VIII): 95.5%
[1]; 100 μg/ml, relative to untreated control cells
  Percent Control IgE-Secretion (Table V): 53%
[2]
  Percent Control of Histamine Release (Table VII): 88.1%
  Percent Control, Histamine Release (Table VIII): about 100%
[2]; listed as luteolin
  Percent Control of Histamine Release (Table VII): about 88%
[2]; listed as luteolin from Perilla leaf
  Percent Control of Histamine Release (Table VII): about 88%
[2]; 100 ng/ml
  Percent Control of Histamine Release (Table VI): 10%
[2]; [3]
  Percent Control, Histamine Release (Table VIII): 99.9%
